Holding throughout (format): biochemical
Assay [1] concerns the target T1, Cathepsin G (cathepsin G human neutrophil) (Homo sapiens, UniProt P08311).
T1 construct: Cathepsin G (cathepsin G human neutrophil, Sigma-Aldrich); purchased Sigma-Aldrich; host or cells: human neutrophil
T1 sequence (P08311 21-255): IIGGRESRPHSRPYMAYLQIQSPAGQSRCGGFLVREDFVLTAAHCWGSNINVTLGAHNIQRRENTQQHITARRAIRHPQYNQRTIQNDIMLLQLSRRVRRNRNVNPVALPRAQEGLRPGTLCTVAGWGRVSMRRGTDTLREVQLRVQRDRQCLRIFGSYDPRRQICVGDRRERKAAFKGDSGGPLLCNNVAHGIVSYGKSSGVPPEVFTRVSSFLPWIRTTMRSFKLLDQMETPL
The assay can be described thus: IC50 determination, spectrophotometric protease assay. Put shortly: (§1)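 IC50 values derive from four-parameter logistic fitting of duplicate measurements. Each protease was run with its substrate at Km, monitoring pNA or AMC release for 30 min at 37°C, after a 10/1/.1 μM range-finding screen.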

Assay [2] deals with T2, TLCK-treated pancreatic bovine chymotrypsin (Bos taurus, UniProt P00766).
T2 construct: TLCK-treated pancreatic bovine chymotrypsin (Sigma-Aldrich); purchased Sigma-Aldrich; host or cells: bovine pancreas
Described as above. Put shortly:
as §1

Assay [3] has as its target T3, Thrombin (recombinant thrombin) (Homo sapiens, UniProt P00734).
T3 construct: purchased R&D
The assay is described as above. The procedure, abridged: as §1

The target of assay [4] is T4, Trypsin-3 (recombinant trypsin-3) (Homo sapiens, UniProt P35030).
T4 construct: purchased R&D
T4 sequence (P35030 1-304): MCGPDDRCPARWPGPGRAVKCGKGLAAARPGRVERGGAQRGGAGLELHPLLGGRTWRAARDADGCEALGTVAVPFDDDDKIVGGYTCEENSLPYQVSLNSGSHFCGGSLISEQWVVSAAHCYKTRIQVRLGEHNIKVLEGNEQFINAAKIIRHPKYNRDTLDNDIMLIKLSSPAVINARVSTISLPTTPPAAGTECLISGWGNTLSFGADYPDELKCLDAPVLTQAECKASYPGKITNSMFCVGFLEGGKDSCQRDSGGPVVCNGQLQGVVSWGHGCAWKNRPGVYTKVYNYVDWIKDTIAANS
The description is as above. The procedure, abridged: as §1

For assay [5], the target named is T5, uPA (recombinant urokinase plasminogen activator) (Homo sapiens, UniProt P00749).
T5 construct: purchased HYPHEN BioMed
Described as above. The procedure, abridged:
as §1

For assay [6], the target named is T6, β-tryptase (recombinant tryptase β-2) (Homo sapiens, UniProt P20231).
T6 construct: purchased EnzoLife Sciences
T6 sequence (P20231 31-275): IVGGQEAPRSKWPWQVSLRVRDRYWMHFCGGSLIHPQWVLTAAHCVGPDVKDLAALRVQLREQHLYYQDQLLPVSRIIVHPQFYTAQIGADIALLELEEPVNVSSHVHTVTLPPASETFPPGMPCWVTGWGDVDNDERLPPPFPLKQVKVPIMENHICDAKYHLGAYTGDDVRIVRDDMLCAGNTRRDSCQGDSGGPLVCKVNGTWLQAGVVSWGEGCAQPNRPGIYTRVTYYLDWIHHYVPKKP
The description is as above. Put shortly:
as §1

For assay [7], the target named is T7, Trypsin-3 (Homo sapiens, UniProt P35030).
T7 sequence (P35030 1-304): T4 sequence (P35030 1-304)
The assay can be described thus: Jump dilution, determination of inhibition type. The conditions noted are these: inhibitor at 10 times IC50, 15 min, diluted 10-fold or 100-fold; Rev./Irrev. Details: purchased R&D. The procedure:
The dissociation of the enzyme-inhibitor complex was monitored by substrate hydrolysis over time ([Joossens et al., 2006]).
Because ABPs are designed to be irreversible serine protease inhibitors, the IC50 is exclusively used as a first discriminatory evaluation. When an inhibitor is irreversible, its IC50 value not only depends on the substrate and enzyme concentration but also on the time of incubation with the enzyme before the reaction is started by adding the substrate. […] The progress curve in the presence of an irreversible inhibitor will show final velocities equal to zero (Figure 6C). In contrast, for a reversible inhibitor, progress curves have a non-zero final steady-state velocity (Figure 6A) ([McWhirter, 2021]). To corroborate the inhibitory mechanism of the compounds, jump-dilution assays were performed. These use an inhibitor concentration of 10-fold the IC50 for the incubation, and a posteriori, the reaction mixture is diluted 10-fold or 100-fold before adding the substrate. In the case of an irreversible inhibitor, enzymatic activity is not regained (Figure 6D), whereas, in the case of a reversible compound, a slow release of the inhibitor and a gradual increase of the enzymatic activity rate is observed (Figure 6B) ([Copeland, 2013]; [McWhirter, 2021]). The jump-dilution assays confirmed the behavior described by the progress curves.
2.2.2 Jump dilution results
Supplementary Table 2. Jump dilution of selected alkyne and desthiobiotin probes against a panel of trypsin-like serine proteases. […]
# R R DtBa 3 tryptase Thrombin uPA CatG
32b H Alk Irrev. Irrev. Rev. Irrev. Rev.
45b DtB Irrev. Irrev. Rev. N.D. N.D.
33b Alk Irrev. Irrev. Rev. Irrev. Rev.
46b Cl DtB Irrev. Irrev. Rev. N.D. N.D.
34b H Alk Rev. Rev. Rev. Irrev. Rev.
50b DtB Rev. Rev. Rev. Irrev. Rev.
35b Alk Rev. Rev. Rev. Irrev. Rev.
52b NHCOMe DtB Rev. Rev. Rev. Irrev. Rev.
36b Alk Rev. Rev. Rev. Irrev. Rev.
54b Cl DtB Rev. Rev. Rev. Irrev. Rev.
37b Alk Irrev. Irrev. N.D. Irrev. Irrev.
55b H DtB Irrev. Irrev. N.D. Irrev. Irrev.
38b Alk Irrev. Irrev. N.D. Irrev. Irrev.
56b NHCOMe DtB Irrev. Irrev. N.D. Irrev. Irrev.
39b Alk Irrev. Irrev. N.D. Irrev. Rev.
57b Cl DtB Irrev. Irrev. N.D. Irrev. Rev.
41b H Alk Irrev. Irrev. Irrev. N.D. N.D.
31b Pro-Lys H Alk Irrev. Irrev. Irrev. Irrev. N.D. a Alk: ABP precursor bearing an alkyne; DtB: desthiobiotin probe b Panel of serine proteases abbreviations: urokinase plasminogen activator (uPA), cathepsin G (catG) N.D.: IC50 is greater than 10µM, and jump dilution was not performed
2.2.3 Progress curves and Jump dilution experiments
Kinetic assays were performed in the following manner. The inhibitor was mixed with the substrate, and the buffer solution with the enzyme was added at the time zero. The progress curves show the release of para-nitroaniline (pNA) or 7-amino-4-methyl coumarin (AMC) as a function of time.
To monitor the dissociation of the inhibitor-enzyme, aliquots of the enzyme were incubated at 37 °C without and with the inhibitor at a concentration 10 times higher than its IC 50. The enzyme […]
min, the aliquots were diluted 10-fold or 100-fold into the substrate concentration and assay buffer used for the IC50 determination. The dissociation of the enzyme-inhibitor complex was monitored by substrate hydrolysis over time. Blue lines represent the control where no inhibitor was present. Pink lines represent the assay with inhibitor.

[8] abbreviates: read-out: CatG IC50, desthiobiotin probes, 15 min preincubation at 37°C, mean ± SD.
The mark [9] stands for this setting: read-out: ChTryp IC50, desthiobiotin probes, 15 min preincubation at 37°C, mean ± SD.
The mark [10] stands for this setting: read-out: Thrombin IC50, desthiobiotin probes, 15 min preincubation at 37°C, mean ± SD.
[11] abbreviates: read-out: Trypsin-3 IC50, desthiobiotin probes, 15 min preincubation at 37°C, mean ± SD.
The mark [12] stands for this setting: read-out: uPA IC50, desthiobiotin probes, 15 min preincubation at 37°C, mean ± SD.
[13] abbreviates: read-out: β-tryptase IC50, desthiobiotin probes, 15 min preincubation at 37°C, mean ± SD.

Where a name gives a salt, the structure may show the parent alone. Read-outs that look alike come from different tables or passages of the source.

For `C[C@@H]1NC(=O)N[C@@H]1CCCCCC(=O)NCCOCCOCCOCCn1cc(CCCOC(=O)NC(Cc2ccc(NC(=N)N)cc2)P(=O)(Oc2ccccc2)Oc2ccccc2)nn1` (stereo partly drawn) [50b, 3-(1-(18-((4R,5S)-5-methyl-2-oxoimidazolidin-4-yl)-13-oxo-3,6,9-trioxa-12-azaoctadecyl)-1H-1,2,3-triazol-4-yl)propyl (1-(diphenoxyphosphoryl)-2-(4-guanidinophenyl)ethyl)carbamate trifluoroacetate salt], the IC50 (in general, the concentration at which inhibition is half-maximal) stood at 0.36 ± 0.004 µM in assay [1]; 1.64 ± 0.5 µM in assay [2]; 3.52 ± 0.39 µM in assay [3]; 0.03 ± 0.01 µM in assay [4]; 0.02 ± 0.0001 µM in assay [5]; 0.36 ± 0.07 µM in assay [6]. Further, the “Trypsin-3 jump dilution result” value in assay [7] was “Rev”.
Regarding `CC(=O)Nc1ccc(OP(=O)(Oc2ccc(NC(C)=O)cc2)C(Cc2ccc(NC(=N)N)cc2)NC(=O)OCCCc2cn(CCOCCOCCOCCNC(=O)CCCCC[C@H]3NC(=O)N[C@H]3C)nn2)cc1` (stereo partly drawn) [52b], the IC50 in assay [1] is 0.05 ± 0.007 µM; in assay [2], greater than 10 µM; in assay [3] it was 0.76 ± 0.02 µM; in assay [4], 0.01 ± 0.001 µM; in assay [5], 0.01 ± 0.003 µM; in assay [6], 0.07 ± 0.003 µM. Further, the “Trypsin-3 jump dilution result” value in assay [7] is given as “Rev”.
`C[C@@H]1NC(=O)N[C@@H]1CCCCCC(=O)NCCOCCOCCOCCn1cc(CCCOC(=O)NC(Cc2ccc(NC(=N)N)cc2)P(=O)(Oc2ccc(Cl)cc2)Oc2ccc(Cl)cc2)nn1` (stereo partly drawn) [54b]: the half-inhibitory concentration (IC50) in assay [1] was determined as 0.12 ± 0.01 µM; in assay [2], 5.6 ± 1.06 µM; in assay [3], 0.2 ± 0.02 µM; in assay [4] it was 0.008 ± 0.002 µM; in assay [5] it was 0.006 ± 0.0001 µM; in assay [6], 0.11 ± 0.009 µM. For the same compound, the “Trypsin-3 jump dilution result” value in assay [7] is given as “Rev”.
In the case of `C[C@@H]1NC(=O)N[C@@H]1CCCCCC(=O)NCCOCCOCCOCCn1cc(CCCOC(=O)NC(c2ccc(NC(=N)N)cc2)P(=O)(Oc2ccccc2)Oc2ccccc2)nn1` (stereo partly drawn) [55b], the half-inhibitory concentration (IC50) in assay [1] (setting [8]) is 1.62 ± 0.09 µM; in assay [2] (setting [9]) it was greater than 10 µM; in assay [3] (setting [10]) it was greater than 10 µM; in assay [4] (setting [11]), 0.24 ± 0.01 µM; in assay [5] (setting [12]), 2.22 ± 0.07 µM; in assay [6] (setting [13]) it was 0.37 ± 0.09 µM. For the same compound, the “Trypsin-3 jump dilution result” value in assay [7] is “Irrev”.
For `CC(=O)Nc1ccc(OP(=O)(Oc2ccc(NC(C)=O)cc2)C(NC(=O)OCCCc2cn(CCOCCOCCOCCNC(=O)CCCCC[C@H]3NC(=O)N[C@H]3C)nn2)c2ccc(NC(=N)N)cc2)cc1` (stereo partly drawn) [56b], the IC50 in assay [1] (setting [8]) is 0.62 ± 0.009 µM; in assay [2] (setting [9]) it was greater than 10 µM; in assay [3] (setting [10]), greater than 10 µM; in assay [4] (setting [11]), 0.22 ± 0.004 µM; in assay [5] (setting [12]) it was 5.19 ± 0.08 µM; in assay [6] (setting [13]), 0.39 ± 0.1 µM. Besides, the “Trypsin-3 jump dilution result” value in assay [7] was “Irrev”.
`C[C@@H]1NC(=O)N[C@@H]1CCCCCC(=O)NCCOCCOCCOCCn1cc(CCCOC(=O)NC(c2ccc(NC(=N)N)cc2)P(=O)(Oc2ccc(Cl)cc2)Oc2ccc(Cl)cc2)nn1` (stereo partly drawn) [57b]: the IC50 was 0.12 ± 0.04 µM in assay [1] (setting [8]); greater than 10 µM in assay [2] (setting [9]); greater than 10 µM in assay [3] (setting [10]); 0.18 ± 0.07 µM in assay [4] (setting [11]); 0.16 ± 0.04 µM in assay [5] (setting [12]); 0.02 ± 0.0002 µM in assay [6] (setting [13]). Besides, the “Trypsin-3 jump dilution result” value in assay [7] was “Irrev”.

For the origin of these results see PMC9849758, “Chemically diverse activity-based probes with unexpected inhibitory mechanisms targeting trypsin-like serine proteases” (Frontiers in Chemistry, 2023).
